PMC3251925 (Bioorganic & medicinal chemistry, 2011)
Read-outs that look alike come from different tables or passages of the source.

Tests used:
Edema Factor (EF) [1] = biological target: T1, Edema Factor (EF) (Bacillus anthracis, UniProt P40136); assay: cell-based; format: cell-based
RAW 264.7 cells = conditions: added alone, at the highest dose tested
cholera toxin = conditions: cited from earlier work
[2] = system: enterotoxigenic E.coli (ETEC); format: in vivo; conditions: assuming 5 ml serum/mouse
[3] = system: enterotoxigenic E.coli (ETEC); conditions: cited from earlier work
Edema Factor (EF) [4] = biological target: T1, Edema Factor (EF); conditions: read-out: IC50, inhibition of cAMP production induced by edema toxin; cited from earlier work
[5] = system: human GADD45α gene-GFP reporter in TK6 cells (GenM-T01, GenM-C01)
[6] = in vivo; cited from earlier work

T1 sequence (P40136 whole entry, looked up): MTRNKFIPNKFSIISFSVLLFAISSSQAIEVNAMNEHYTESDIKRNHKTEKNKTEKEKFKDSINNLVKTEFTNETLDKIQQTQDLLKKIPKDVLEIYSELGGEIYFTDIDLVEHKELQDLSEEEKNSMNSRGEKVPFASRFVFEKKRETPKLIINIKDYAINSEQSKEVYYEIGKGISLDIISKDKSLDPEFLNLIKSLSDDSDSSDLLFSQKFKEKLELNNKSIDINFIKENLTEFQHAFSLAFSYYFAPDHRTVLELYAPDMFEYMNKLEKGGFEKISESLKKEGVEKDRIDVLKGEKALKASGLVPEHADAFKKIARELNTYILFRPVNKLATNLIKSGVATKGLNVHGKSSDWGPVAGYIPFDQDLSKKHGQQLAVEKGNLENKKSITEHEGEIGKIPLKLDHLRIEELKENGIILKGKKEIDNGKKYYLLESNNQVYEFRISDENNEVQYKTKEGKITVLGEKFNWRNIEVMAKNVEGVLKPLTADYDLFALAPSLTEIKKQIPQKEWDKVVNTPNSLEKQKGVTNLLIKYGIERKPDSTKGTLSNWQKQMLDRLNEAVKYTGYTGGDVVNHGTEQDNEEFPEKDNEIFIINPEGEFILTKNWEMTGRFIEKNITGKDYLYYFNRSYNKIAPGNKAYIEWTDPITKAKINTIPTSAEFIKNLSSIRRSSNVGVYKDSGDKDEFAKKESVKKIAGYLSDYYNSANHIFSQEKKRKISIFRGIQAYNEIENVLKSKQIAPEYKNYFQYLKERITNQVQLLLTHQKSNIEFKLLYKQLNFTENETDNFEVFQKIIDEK

3-[(Biphenyl-3-carbonyl)-amino]-benzoic acid [Compound 2]
IC50 (Edema Factor (EF) [1]; read-out: IC50 (μM) Assay 1): 19 µM

O=C(O)c1cccc(NC(=O)c2cccc3c2C(=O)c2ccccc2-3)c1 [Compound 1, 3-(9-oxo-9H-fluorene-1-carboxamido)benzoic acid]
Obvious toxicity to cultured cells (RAW 264.7 cells): no obvious toxic effect | Inhibition of cholera toxin (cholera toxin): inhibits cholera toxin | Active dose in mice expressed as concentration [2]: about 3 μg/ml | Effective dose to reduce diarrhea in mice (from ETEC) ([3]; intraperitoneally or by gavage, per mouse): 7.5 to 15 µg | Diarrhea caused by ETEC ([3]; mouse, oral gavage dose of 15 μg/mouse): reduced diarrhea | Levels of bacteria in the colons of infected and treated mice ([3]; versus mice that did not receive the compound): much lower | IC50 (Edema Factor (EF) [1]): 1.64 to 12.3 µM | Mutagenicity (tester strain TAMix): non-mutagenic | Number of revertants (tester strain TAMix): doubling | IC50 (Edema Factor (EF) [4]): 2 to 9 µM | Concentration determined to be cytotoxic [5]: 62.5 µg/mL | Concentration with genotoxic activity (positive response) [5]: 62.5 µg/mL | Obvious toxic effect in mouse studies [6]: no obvious toxic effect

O=C(Nc1ccccc1)c1cccc2c1C(=O)c1ccccc1-2 [Compound 4, 9-oxo-N-phenyl-9H-fluorene-1-carboxamide]
EF inhibitory activity, in words (Edema Factor (EF) [1]): relatively inactive

Nc1ccc(NC(=O)c2cccc3c2C(=O)c2ccccc2-3)c(C(=O)O)c1 [Compound 6, 5-Amino-2-(9-oxo-9H-fluorene-1-carboxamido)benzoic acid]
EF inhibitory activity, in words (Edema Factor (EF) [1]): inactive

O=C(O)c1cc(NC(=O)c2cccc3c2C(=O)c2ccccc2-3)ccc1O [Compound 9, 2-Hydroxy-5-(9-oxo-9H-fluorene-1-carboxamido)benzoic acid]
EF inhibitory activity, in words (Edema Factor (EF) [1]): inactive

Nc1cc(NC(=O)c2cccc3c2C(=O)c2ccccc2-3)cc(C(=O)O)c1 [Compound 10, 3-amino-5-(9-oxo-9H-fluorene-1-carboxamido)benzoic acid]
Obvious toxicity to cultured cells (RAW 264.7 cells): neither caused obvious toxicity | IC50 (Edema Factor (EF) [1]): 1.3 µM

COC(=O)c1cc(NC(=O)c2cccc3c2C(=O)c2ccccc2-3)ccc1O [Compound 14, Methyl 2-hydroxy-5-(9-oxo-9H-fluorene-1-carboxamido)benzoate]
EF inhibitory activity, in words (Edema Factor (EF) [1]): completely inactive | IC50 (Edema Factor (EF) [1]): 249 µM

CN(C)c1cccc(NC(=O)c2cccc3c2C(=O)c2ccccc2-3)c1 [Compound 19, N-(3-(dimethylamino)phenyl)-9-oxo-9H-fluorene-1-carboxamide]
Obvious toxicity to cultured cells (RAW 264.7 cells): neither caused obvious toxicity
